Data on 17 molecules can be found in patent publication US8232283B2, “Raf inhibitors” (Forma Therapeutics, Inc., priority 2008, dated 2012).

The target of assay [1] is T1, C-Raf (Homo sapiens, UniProt P04049).
T1 construct: purchased Proteros biostructures GmbH (selectivity panel service)
Kind of assay: Biochemical inhibition, standard selectivity panel (Proteros). On the set-up: dose or concentration left out as unconfirmed. The procedure: (§1) For example, selected compound of the present invention were tested in a standard selectivity panel including c-Raf, p38, and 22 other kinases (Proteros biostructures GmbH, Martinsried/Munich, Germany), under conditions of non-disclosure, non-dissemination and non-use.
(§2) In brief, selected compounds of the present invention were tested […] in triplicates against c-Raf, p38 as well as against Ab1, Akt1, Aur A, c-Kit, c-Raf, Cdk1/CycB, Chk1, FGFR3, Flt3, Fyn, IGF1-R, INSR, Lyn, MAPK-ERK1, PAK-4, PKCalpha, Plk1, Ret, ROCK2, RSK 1, c-Src, TIE2, and VEGF-R2.

The target of assay [2] is T2, p38 (Homo sapiens, UniProt Q16539).
T2 construct: purchased Proteros biostructures GmbH (selectivity panel service)
T2 sequence (Q16539 whole entry): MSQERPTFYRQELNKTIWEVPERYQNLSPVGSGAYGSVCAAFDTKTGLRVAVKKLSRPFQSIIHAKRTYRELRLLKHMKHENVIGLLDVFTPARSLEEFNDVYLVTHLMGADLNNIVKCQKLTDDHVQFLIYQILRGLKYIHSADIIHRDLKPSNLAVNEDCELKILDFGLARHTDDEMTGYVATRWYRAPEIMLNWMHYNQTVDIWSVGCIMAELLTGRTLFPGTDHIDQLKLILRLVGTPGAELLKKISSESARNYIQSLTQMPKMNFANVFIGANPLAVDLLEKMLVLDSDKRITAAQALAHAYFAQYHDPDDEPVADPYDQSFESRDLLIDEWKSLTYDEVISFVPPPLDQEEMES
Described as above. On the set-up: dose or concentration left out as unconfirmed. How it is done:
as §1, §2

Assay [3] relates to HT-29 [B-Raf V600E mutant]. Kind of assay: Anti-proliferative activity, SRB assay, 72 hours. It is filed as cell-based. To be noted: Homo sapiens, read-out: CELLULAR IC50 [μM] HT-29 [B-Raf V600E mutant]. The procedure: We observed the surprising finding that compounds of the invention were useful in inhibiting proliferation of HT-29 tumor cells (see Table 3).
(§3) Cells were exposed to the test compounds at various concentrations appropriate to determine an IC50, for 72 hours, and cell proliferation was measured using the SRB assay according to Shekan et al (J Natl Cancer Inst (1990) 82, 1107-112) in order to estimate the IC50 values shown in Table 3.
(§4) Briefly, cells were plated in 96 well dishes 24 hours prior to compound addition at the densities specified in Table 11.1.
(§5) The assay was terminated with the addition of ice cold 10% TCA after growth medium has been removed and the plates were incubated over night at 4° C. The plates were then washed 5 times with water and 100 μl of a Sulforhodamine B solution ([…]) was added to each well. The plates were then incubated for 10 minutes at room temperature before removal of unbound dye by washing with 1% acetic acid. The bound dye was solubilized with 10 mM Trizma base and the absorbance read at OD520.
(§6) Inhibitory activity of the compounds was calculated as % inhibition of cell proliferation compared to cells treated with the solvent (DMSO).

Assay [4] has as its system A-431 [B-Raf wildtype]. Kind of assay: Anti-proliferative activity, SRB assay, 72 hours. To be noted: Homo sapiens, read-out: CELLULAR IC50 [μM] A-431 [B-Raf wildtype]. The format is cell-based. How it is done: as §3, §4, §5, §6
A general note: Sulforhodamine B stains cellular protein and so reports cell mass.

T1 sequence (P04049 whole entry): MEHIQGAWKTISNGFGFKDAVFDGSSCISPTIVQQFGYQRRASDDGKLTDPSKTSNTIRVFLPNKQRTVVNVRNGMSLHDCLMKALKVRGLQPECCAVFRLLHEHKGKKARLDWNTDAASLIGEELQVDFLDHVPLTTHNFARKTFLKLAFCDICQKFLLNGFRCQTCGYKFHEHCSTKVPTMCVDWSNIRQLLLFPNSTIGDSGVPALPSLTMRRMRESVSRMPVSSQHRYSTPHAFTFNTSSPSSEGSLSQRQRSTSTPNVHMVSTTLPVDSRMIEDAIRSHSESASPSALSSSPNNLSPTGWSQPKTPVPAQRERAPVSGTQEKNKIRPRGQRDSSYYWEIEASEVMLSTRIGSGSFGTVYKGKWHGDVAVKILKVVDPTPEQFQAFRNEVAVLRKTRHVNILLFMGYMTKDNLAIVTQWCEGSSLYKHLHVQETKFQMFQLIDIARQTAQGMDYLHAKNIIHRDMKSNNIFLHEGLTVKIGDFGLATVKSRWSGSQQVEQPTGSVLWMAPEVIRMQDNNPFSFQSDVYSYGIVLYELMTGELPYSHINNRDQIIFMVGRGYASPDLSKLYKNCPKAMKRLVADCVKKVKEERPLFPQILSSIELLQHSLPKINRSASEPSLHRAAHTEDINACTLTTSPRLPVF

For the molecule `COn1c(=O)c(-c2cc(NC(=O)Nc3ccc(C(C)(C)C)cc3)ccc2Cl)cc2cnc(NCCN(C)C)nc21` [Compound 44, 1-(4-tert-Butyl-phenyl)-3-{4-chloro-3-[2-(2-dimethylamino-ethylamino)-8-methoxy-7-oxo-7,8-dihydro-pyrido[2,3-d]pyrimidin-6-yl]-phenyl}-urea], the inhibition in assay [1] and in assay [2] was greater than 70% in each case. For the same molecule, the IC50 in assay [3] and in assay [4] was less than 5 µM throughout.
For the molecule `COn1c(=O)c(-c2cc(NC(=O)c3cc(Cl)nc(NC(C)C)c3)ccc2Cl)cc2cnc(NCCN(C)C)nc21` [Compound 64, 2-Chloro-N-(4-chloro-3-(2-(2-(dimethylamino)ethylamino)-8-methoxy-7-oxo-7,8-dihydropyrido[2,3-d]pyrimidin-6-yl)phenyl)-6-isopropylamino-isonicotinamide], the inhibition in assay [1] and in assay [2] was greater than 70% throughout. Moreover, the IC50 (in general, the concentration at which inhibition is half-maximal) is less than 5 µM in assay [3] and greater than 10 µM in assay [4].
On to `COn1c(=O)c(-c2cc(NC(=O)c3cc(C(C)(C)C)nn3-c3ccccc3)ccc2Cl)cc2cnc(NCCN(C)C)nc21` [Compound 31, 5-tert-Butyl-2-phenyl-2H-pyrazole-3-carboxylic acid {4-chloro-3-[2-(2-dimethylamino-ethylamino)-8-methoxy-7-oxo-7,8-dihydro-pyrido[2,3-d]pyrimidin-6-yl]-phenyl}-amide], for which the inhibition (as a rule, the percentage by which the read-out fell short of the control) in assay [1] is roughly 70%; in assay [2], greater than 70%. Further, the results for the 50% inhibitory concentration (IC50) in assay [3] and in assay [4] were less than 5 µM and less than 10 µM, respectively.
For `COn1c(=O)c(-c2cc(NC(=O)Nc3ccc(C)c(C(F)(F)F)c3)ccc2Cl)cc2cnc(NCCN(C)C)nc21` [Compound 47, 1-{4-Chloro-3-[2-(2-dimethylamino-ethylamino)-8-methoxy-7-oxo-7,8-dihydro-pyrido[2,3-d]pyrimidin-6-yl]-phenyl}-3-(4-methyl-3-trifluoromethyl-phenyl)-urea] the same measures were greater than 70%, greater than 70%, less than 5 µM and greater than 5 µM.
Take `COn1c(=O)c(-c2cc(NC(=O)Nc3ccc(F)c(C(F)(F)F)c3)ccc2Cl)cc2cnc(NCCN(C)C)nc21` [Compound 42, 1-{4-Chloro-3-[2-(2-dimethylamino-ethylamino)-8-methoxy-7-oxo-7,8-dihydro-pyrido[2,3-d]pyrimidin-6-yl]-phenyl}-3-(4-fluoro-3-trifluoromethyl-phenyl)-urea]: the inhibition in assay [1] and in assay [2] was greater than 70% each time. For the same molecule, the IC50 was less than 5 µM in assay [3] and less than 10 µM in assay [4].
For the molecule `COn1c(=O)c(-c2cc(NC(=O)Cc3ccc(Cl)c(C(F)(F)F)c3)ccc2Cl)cc2cnc(NCCN(C)C)nc21` [Compound 16, N-{4-Chloro-3-[2-(2-dimethylamino-ethylamino)-8-methoxy-7-oxo-7,8-dihydro-pyrido[2,3-d]pyrimidin-6-yl]-phenyl)-2-(4-chloro-3-trifluoromethyl-phenyl)-acetamide], the inhibition in assay [1] and in assay [2] was greater than 70% throughout. Also, the IC50 was less than 5 µM in assay [3] and greater than 10 µM in assay [4].
For `COn1c(=O)c(-c2cc(NC(=O)c3cccc(C(F)(F)F)c3)ccc2Cl)cc2cnc(NCCN(C)C)nc21` [Compound 24, N-{4-Chloro-3-[2-(2-dimethylamino-ethylamino)-8-methoxy-7-oxo-7,8-dihydro-pyrido[2,3-d]pynmidin-6-yl]-phenyl}-3-trifluoromethyl-benzamide], the inhibition in assay [1] and in assay [2] was greater than 70% each time. The IC50 was less than 5 µM in assay [3] and greater than 10 µM in assay [4].
On to `COn1c(=O)c(-c2cc(NC(=O)c3cc(F)cc(C(F)(F)F)c3)ccc2Cl)cc2cnc(NCCN(C)C)nc21` [Compound 28], for which the inhibition in assay [1] and in assay [2] was greater than 70% throughout. The results for the IC50 in assay [3] and in assay [4] were less than 5 µM and greater than 10 µM, respectively.
Regarding `CCN(CC)c1cc(C(=O)Nc2ccc(Cl)c(-c3cc4cnc(NCCN(C)C)nc4n(OC)c3=O)c2)cc(Cl)n1` [Compound 8, 2-Chloro-N-(4-chloro-3-(2-(2-(dimethylamino)ethylamino)-8-methoxy-7-oxo-7,8-dihydropyrido[2,3-d]pyrimidin-6-yl)phenyl)-6-diethylamino-isonicotinamide], the inhibition in assay [1] and in assay [2] was greater than 70% throughout. Besides, the IC50 is less than 5 µM in assay [3] and less than 10 µM in assay [4].
As to `COn1c(=O)c(-c2cc(NC(=O)c3ccnc(N4CCOCC4)c3)ccc2Cl)cc2cnc(NCCN(C)C)nc21` [Compound 26, N-{4-Chloro-3-[2-(2-dimethylamino-ethylamino)-8-methoxy-7-oxo-7,8-dihydro-pyrido[2,3-d]pyrimidin-6-yl]-phenyl)-2-morpholin-4-yl-isonicotinamide], the inhibition in assay [1] and in assay [2] was greater than 70% each time. Also, the IC50 in assay [3] is less than 10 µM; in assay [4] it was greater than 10 µM.
Take `COn1c(=O)c(-c2cc(NC(=O)Nc3cc(C(F)(F)F)cc(C(F)(F)F)c3)ccc2Cl)cc2cnc(NCCN(C)C)nc21` [Compound 50, 1-(3,5-Bis-trifluoromethyl-phenyl)-3-{4-chloro-3-[2-(2-dimethylamino-ethylamino)-8-methoxy-7-oxo-7,8-dihydro-pyrido[2,3-d]pyrimidin-6-yl]-phenyl}-urea]: the inhibition in assay [1] and in assay [2] was greater than 70% throughout. Besides, the IC50 was less than 5 µM in assay [3] and less than 10 µM in assay [4].
Consider `COn1c(=O)c(-c2cc(NC(=O)c3cccc(Cl)c3)ccc2Cl)cc2cnc(NCCN(C)C)nc21` [Compound 18, 3-Chloro-N-{4-chloro-3-[2-(2-dimethylamino-ethylamino)-8-methoxy-7-oxo-7,8-dihydro-pyrido[2,3-d]pyrimidin-6-yl]-phenyl}-benzamide], for which the inhibition in assay [1] and in assay [2] was greater than 70% in each case. Moreover, the IC50 in assay [3] is less than 10 µM; in assay [4] it was greater than 10 µM.
For `COn1c(=O)c(-c2cc(NC(=O)Nc3cccc(Cl)c3)ccc2Cl)cc2cnc(NCCN(C)C)nc21` [Compound 43, 1-{4-Chloro-3-[2-(2-dimethylamino-ethylamino)-8-methoxy-7-oxo-7,8-dihydro-pyrido[2,3-d]pyrimidin-6-yl]-phenyl}-3-(3-chloro-phenyl)-urea], the inhibition in assay [1] and in assay [2] was greater than 70% throughout. The IC50 was less than 5 µM in assay [3] and greater than 10 µM in assay [4].
On to `COn1c(=O)c(-c2cc(NC(=O)c3cc(C(F)(F)F)ccc3F)ccc2Cl)cc2cnc(NCCN(C)C)nc21` [Compound 23, N-{4-Chloro-3-[2-(2-dimethylamino-ethylamino)-8-methoxy-7-oxo-7,8-dihydro-pyrido[2,3-d]pyrimidin-6-yl]-phenyl]-2-fl uoro-5-trifluoromethyl-benzamide], for which the inhibition in assay [1] and in assay [2] was greater than 70% each time. Also, the figures for the IC50 in assay [3] and in assay [4] were less than 5 µM and greater than 10 µM, respectively.
As for `COn1c(=O)c(-c2cc(NC(=O)c3ccc(Cl)c(OC(F)(F)F)c3)ccc2Cl)cc2cnc(NCCN(C)C)nc21` [Compound 30, 4-Chloro-N-(4-chloro-3-[2-(2-dimethylamino-ethylamino)-8-methoxy-7-oxo-7,8-dihydro-pyrido[2,3-d]pyrimidin-6-yl]-phenyl}-3-trifluoromethoxy-benzamide], the inhibition in assay [1] and in assay [2] was greater than 70% in each case. For the same molecule, the IC50 in assay [3] was less than 5 µM; in assay [4], greater than 10 µM.
Take `COn1c(=O)c(-c2cc(NC(=O)c3cc(Cl)nc(N4CCOCC4)c3)ccc2Cl)cc2cnc(NCCN(C)C)nc21` [Compound 61, 2-Chloro-N-(4-chloro-3-(2-(2-(dimethylamino)ethylamino)-8-methoxy-7-oxo-7,8-dihydropyrido[2,3-d]pyrimidin-6-yl)phenyl)-6-morpholin-4-yl-isonicotinamide]: the inhibition in assay [1] and in assay [2] was greater than 70% each time. Moreover, the figures for the IC50 in assay [3] and in assay [4] were less than 5 µM and greater than 10 µM, respectively.
For `COn1c(=O)c(-c2cc(NC(=O)c3ccc(C(C)(C)C)cc3)ccc2Cl)cc2cnc(NCCN(C)C)nc21` [Compound 37, 4-tert-Butyl-N-{4-chloro-3-[2-(2-dimethylamino-ethylamino)-8-methoxy-7-oxo-7,8-dihydro-pyrido[2,3-d]pyrimidin-6-yl]-phenyl)-benzamide], the inhibition in assay [1] and in assay [2] was greater than 70% in each case. For the same molecule, the IC50 is less than 5 µM in assay [3] and less than 10 µM in assay [4].
